The values below come from PubChem BioAssay (NCI).

What all share (experiment): NCI tumour cell line growth inhibition, 48 h
In experiment [1] the test system is MALME-3M melanoma.
Experiment [2] deals with OVCAR-4 ovarian.
For experiment [3], the system named is BT-549 breast.
In experiment [4] the test system is SN12C renal.
Experiment [5] relates to MCF7 breast.
In experiment [6] the test system is NCI/ADR-RES ovarian.
For experiment [7], the system named is OVCAR-5 ovarian.
The subject of experiment [8] is SK-MEL-5 melanoma.
Experiment [9] has as its system UO-31 renal.
In experiment [10] the test system is EKVX NSCLC.

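Protocol summary: plate cells (96-well), add compound at 5 concentrations, incubate 48 h, interpolate endpoints linearly. Abbreviation: GI50, concentration required for 50% inhibition of growth. Definition used: TGI = concentration required for complete inhibition of growth.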 A value given as a limit tells only on which side of the number the result lay.

With `Cc1ccc(S(=O)(=O)Oc2ccc3c4c(c(=O)oc3c2)CCCCCC4)cc1`, the GI50 in [1] is more than 100 µM; in experiment [2] it was more than 100 µM; in experiment [3], more than 100 µM; in experiment [4] it was more than 100 µM; in experiment [5], more than 100 µM; in experiment [6], 5.08 µM. The GI50 in experiment [7] is more than 100 µM; in [8], 4.45 µM; in [9], 27.3 µM. The TGI in experiment [1], in experiment [2], in experiment [3], in experiment [4], in experiment [5] and in [6] was more than 100 µM throughout. Also, the TGI in experiment [7], in experiment [8] and in [9] was more than 100 µM each time.
Turning to `COc1c(C(C)=O)c(OCCCCOc2c(C(C)=O)c(OC)c3ccoc3c2OC)c(OC)c2occc12`, the GI50 in experiment [1] is 2.31 µM; in experiment [2], 3.39 µM; in [3], 1.61 µM; in experiment [10], 2.48 µM; in [4], more than 100 µM; in [5] it was 3.11 µM. In addition, the GI50 in [6] was 1.61 µM; in experiment [7], more than 100 µM; in [8], 1.52 µM; in experiment [9], 2.34 µM. For the same compound, the TGI in [1] was 8.3 µM; in experiment [2] it was more than 100 µM; in [3], 5.22 µM; in experiment [10], more than 100 µM; in experiment [4], more than 100 µM; in experiment [5] it was more than 100 µM. Besides, the TGI in experiment [6] is 4.92 µM; in [7], more than 100 µM; in [8] it was 3.4 µM; in experiment [9] it was more than 100 µM.
Consider `CC(C)(C)C1CCC2c3c([nH]c4ccccc34)C3C(=O)N(c4ccc(C#N)cc4)C(=O)C3C2C1` (configuration not stated), for which the TGI was 37.5 µM in experiment [1]; 65.5 µM in experiment [3]; 41.2 µM in [10]; 21.4 µM in experiment [4]; more than 100 µM in [5]; 53.5 µM in experiment [6]. For the same compound, the TGI in experiment [7] was determined as 56.8 µM; in experiment [8], 25.5 µM; in experiment [9], 33.2 µM.
As for `O=S(=O)(NC1CCCCC1)c1ccc2c(c1)OCCOCCOCCOCCO2`, the TGI in experiment [1], in experiment [3], in experiment [10], in experiment [4], in [5] and in [8] was more than 100 µM each time. This compound had a TGI in [9] of more than 100 µM.
Turning to `C=C1C(=O)O[C@H]2[C@H]1CC/C(COC(=O)CCCCCC(=O)OC/C1=C/CC[C@@]3(C)O[C@H]3[C@H]3OC(=O)C(=C)[C@@H]3CC1)=C\CC[C@@]1(C)O[C@@H]21`, the GI50 in experiment [1] is 2.09 µM; in experiment [2] it was 2.92 µM; in [3], 1.44 µM; in [10], 2.84 µM; in [4] it was 2.86 µM; in [6] it was 3.64 µM. In addition, the GI50 is 1.97 µM in experiment [7], 1.91 µM in experiment [8] and 1.25 µM in [9]. The TGI in experiment [1] turned out to be 5.08 µM; in experiment [2], 15.3 µM; in [3], 3.02 µM; in experiment [10], 11.5 µM; in experiment [4], 11.5 µM; in experiment [6], 24.8 µM. Further, the TGI in [7] turned out to be 4.17 µM; in experiment [8], 4.37 µM; in experiment [9] it was 2.86 µM.
In the case of `Cc1ccc(/C=C/c2c(C(=O)/C=C/c3ccccc3)c(C)nc3ccccc23)cc1`, the GI50 in [1] is 1.74 µM; in [2], 2.19 µM; in experiment [3] it was 1.75 µM; in experiment [10], 1.85 µM; in experiment [4] it was 1.87 µM; in [6] it was 2.24 µM. Moreover, the GI50 in experiment [7] is 1.9 µM; in experiment [8], 1.71 µM; in experiment [9] it was 1.26 µM. Moreover, the TGI stood at 3.18 µM in experiment [1]; 7.72 µM in experiment [2]; 4.36 µM in experiment [3]; 3.58 µM in experiment [10]; 3.85 µM in experiment [4]; 5.85 µM in experiment [6]. Further, the TGI in [7] came out at 3.53 µM; in [8], 3.11 µM; in [9], 2.52 µM.
Take `CCC(=O)N1C/C(=C/c2ccc(Cl)cc2)C(=O)/C(=C/c2ccc(Cl)cc2)C1`: the GI50 in experiment [1] was 2.06 µM; in [2], 0.836 µM; in experiment [3], 0.462 µM; in experiment [4] it was 0.711 µM; in experiment [5] it was 0.324 µM; in experiment [6], 1.79 µM. The GI50 is 1.48 µM in [7], 1.46 µM in experiment [8] and 1.15 µM in experiment [9]. Moreover, the TGI is 4.08 µM in experiment [1]; 2.86 µM in experiment [2]; 1.52 µM in [3]; 2.05 µM in [4]; 1.36 µM in experiment [5]; 12.2 µM in experiment [6]. Besides, the TGI in [7] worked out at 3 µM; in experiment [8] it was 2.81 µM; in experiment [9], 2.5 µM.
Regarding `CCCCCCCCCCCC1=NC(C)(C)CN1C(C)(C)CO`, the GI50 in experiment [2] is 4.61 µM; in experiment [3], 9.89 µM; in [10] it was 2.77 µM; in experiment [4] it was 4.31 µM; in experiment [5], 2.48 µM; in experiment [6], 2.41 µM. The GI50 in experiment [7] was 3.61 µM; in experiment [8], 1.79 µM; in experiment [9], 2.03 µM. The TGI was determined as 15.8 µM in [2]; 22 µM in experiment [3]; 16.9 µM in [10]; 17.5 µM in experiment [4]; 5.64 µM in [5]; 5.76 µM in experiment [6]. Further, the TGI was 15 µM in experiment [7], 3.3 µM in [8] and 8.42 µM in experiment [9].
Turning to `COc1ccc2c(c1)[n+](=O)c(C(=O)c1cccs1)c(C(F)(F)F)n2[O-]`, the GI50 was 16.8 µM in experiment [2]; 1.3 µM in experiment [3]; 1.48 µM in experiment [10]; 2.18 µM in experiment [4]; 4.58 µM in experiment [5]; 4.99 µM in experiment [6]. Moreover, the GI50 in experiment [7] was 4.81 µM; in experiment [8] it was 1.23 µM; in experiment [9] it was 1.83 µM. In addition, the TGI in experiment [2] was more than 50 µM; in experiment [3] it was 6.57 µM; in experiment [10], 8.21 µM; in experiment [4], 10.4 µM; in [5], 23.7 µM; in [6], more than 50 µM. Besides, the TGI in [7] was more than 50 µM; in [8] it was 5.91 µM; in experiment [9], 17.6 µM.
Regarding `COc1ccc2c(c1)/C(=C\c1ccncc1)C(=O)N2`, the GI50 in [3] is 12.5 µM; in experiment [10], 13.9 µM; in experiment [4], 10.3 µM; in [5] it was 8.68 µM; in experiment [6], 12.3 µM; in [7], 23 µM. In addition, the values for the GI50 in experiment [8] and in [9] were 13.1 µM and 6.73 µM, respectively. For the same compound, the TGI in experiment [3] is 32.4 µM; in experiment [10] it was 33 µM; in [4] it was 23.7 µM; in experiment [5], more than 100 µM; in experiment [6], 67.1 µM; in experiment [7] it was 49.2 µM. In addition, the TGI in [8] amounted to 27.6 µM; in experiment [9], 19.3 µM.
In the case of `CN1C(=O)c2ccc3ccccc3c2C1=O`, the TGI was more than 100 µM in experiment [2]; more than 100 µM in [3]; 87.2 µM in experiment [10]; more than 100 µM in experiment [4]; more than 100 µM in [5]; more than 100 µM in experiment [6]. Moreover, the TGI in experiment [7], in experiment [8] and in [9] was more than 100 µM throughout.
As for `Cn1cnc(N)c(N=O)c1=O`, the TGI in experiment [1], in experiment [2], in experiment [3], in experiment [10], in experiment [4] and in experiment [5] was more than 10 µM throughout. Besides, the TGI in [6], in experiment [7] and in [8] was more than 10 µM in each case.
Regarding `CCCCNNC(=O)c1ccc(Br)cc1`, the GI50 in experiment [1] was 1.7 µM; in experiment [2] it was 4.79 µM; in experiment [3] it was 17 µM; in experiment [4], 15.4 µM; in experiment [5] it was 2.06 µM; in [6], 1.03 µM. Besides, the GI50 in experiment [7] is 1.01 µM; in experiment [8] it was 1.94 µM; in [9], 2.36 µM. In addition, the TGI in experiment [1] was more than 50 µM; in [2] it was more than 50 µM; in [3], more than 50 µM; in [4] it was more than 50 µM; in experiment [5], more than 50 µM; in experiment [6], more than 37.8 µM. Besides, the TGI in [7] was more than 15.3 µM; in [8], 7.77 µM; in [9], more than 35.1 µM.
As for `Cc1ccc(/C=C(\C#N)c2cc3ccccc3n2C)cc1`, the GI50 in experiment [3] is 0.742 µM; in experiment [10], 0.58 µM; in experiment [4], 0.614 µM; in [5], 0.305 µM; in [6], 0.361 µM; in [7], 0.632 µM. For the same compound, the values for the GI50 in experiment [8] and in experiment [9] were 0.647 µM and 0.853 µM, respectively. In addition, the TGI in experiment [3] was more than 26.7 µM; in [10] it was more than 100 µM; in experiment [4], more than 100 µM; in [5], more than 100 µM; in [6] it was more than 100 µM; in [7] it was more than 100 µM. In addition, the TGI in experiment [8] and in experiment [9] was more than 100 µM each time.
